# Target: TBK1 (Homo sapiens (Human), UniProt Q9UHD2)
# Test: TBK1 low ATP kinase assay (in vitro assay 1)
# Type: biochemical
# Settings: in vitro assay 1, read-out: TBK1 low ATP kinase assay IC50
# Chain of TBK1 (Q9UHD2 whole entry): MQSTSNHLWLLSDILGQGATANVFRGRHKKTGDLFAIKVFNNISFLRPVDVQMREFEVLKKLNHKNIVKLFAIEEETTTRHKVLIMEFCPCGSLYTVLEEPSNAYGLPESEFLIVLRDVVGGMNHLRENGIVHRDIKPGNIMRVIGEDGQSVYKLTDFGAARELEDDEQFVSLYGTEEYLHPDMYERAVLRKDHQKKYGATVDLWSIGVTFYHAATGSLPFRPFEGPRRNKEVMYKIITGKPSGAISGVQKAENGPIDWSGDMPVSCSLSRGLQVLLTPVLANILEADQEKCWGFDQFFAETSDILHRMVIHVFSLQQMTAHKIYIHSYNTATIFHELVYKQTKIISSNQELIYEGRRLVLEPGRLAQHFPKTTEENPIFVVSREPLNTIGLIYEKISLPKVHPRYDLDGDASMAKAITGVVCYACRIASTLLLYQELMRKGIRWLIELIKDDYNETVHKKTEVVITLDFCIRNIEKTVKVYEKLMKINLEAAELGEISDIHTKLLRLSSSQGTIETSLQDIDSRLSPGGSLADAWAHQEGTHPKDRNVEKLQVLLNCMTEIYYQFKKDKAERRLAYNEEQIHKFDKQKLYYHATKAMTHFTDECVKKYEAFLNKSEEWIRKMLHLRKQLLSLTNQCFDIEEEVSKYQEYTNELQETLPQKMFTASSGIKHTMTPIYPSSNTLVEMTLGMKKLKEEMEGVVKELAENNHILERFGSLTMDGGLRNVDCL
row,IC50 [nM],SMILES
1,2.6,"COc1c(-c2ccc3nc(Nc4cc(C(C)N5CCN(C(=O)OC(C)(C)C)CC5)ccn4)[nH]c3c2)ncnc1N1CCC1 (single isomer, unassigned) [Example 111.01, tert-butyl 4-{(1R or 1S)-1-[2-({6-[6-(azetidin-1-yl)-5-methoxypyrimidin-4-yl]-1H-benzimidazol-2-yl}amino)pyridin-4-yl]ethyl}piperazine-1-carboxylate]"
2,7.12,"O=C(C1CC1)N1CCN(Cc2ccnc(Nc3nc4ccc(-c5ncnc6ccoc56)cc4[nH]3)c2)CC1 [Example 168.03, cyclopropyl{4-[(2-{[6-(furo[3,2-d]pyrimidin-4-yl)-1H-benzimidazol-2-yl]amino}pyridin-4-yl)methyl]piperazin-1-yl}methanone]"
3,414,"O=C(C1CC1)N1CCN(Cc2ccnc(Nc3nc4ccc(-c5nc(C6CCCC6)no5)cc4[nH]3)c2)CC1 [Example 19.01, {4-[(2-{[6-(3-cyclopentyl-1,2,4-oxadiazol-5-yl)-1H-benzimidazol-2-yl]amino}pyridin-4-yl)methyl]piperazin-1-yl}(cyclopropyl)methanone]"
4,26,"CC(c1ccnc(Nc2nc3ccc(-c4cnn(CC5(C)CC5)c4)cc3[nH]2)c1)N1CCN(C(=O)OC(C)(C)C)CC1 (single isomer, unassigned) [Example 68.01, tert-butyl 4-[(1R or 1S)-1-{2-[(6-{1-[(1-methylcyclopropyl)methyl]-1H-pyrazol-4-yl}-1H-benzimidazol-2-yl)amino]pyridin-4-yl}ethyl]piperazine-1-carboxylate]"
5,1500,"Cc1ncc(C)c(-c2ccc3nc(Nc4cc(CN5CCN(C(=O)C6CC6)CC5)ccn4)[nH]c3c2)n1 [Example 33.03, cyclopropyl{4-[(2-{[6-(2,5-dimethylpyrimidin-4-yl)-1H-benzimidazol-2-yl]amino}pyridin-4-yl)methyl]piperazin-1-yl}methanone]"
6,1.4,"CC(C)Nc1cc(-c2ccc3nc(Nc4cc(CN5CCN(C(=O)C6CC6)CC5)ccn4)[nH]c3c2)ncn1 [Example 154.03, cyclopropyl(4-{[2-({6-[6-(propan-2-ylamino)pyrimidin-4-yl]-1H-benzimidazol-2-yl}amino)pyridin-4-yl]methyl}piperazin-1-yl)methanone]"
7,1130,"Cn1ccc(-c2ccc3nc(Nc4cc(CN5CCN(C(=O)CC(F)(F)F)CC5)ccn4)[nH]c3c2)n1 [Example 40.01, 3,3,3-trifluoro-1-{4-[(2-{[6-(1-methyl-1H-pyrazol-3-yl)-1H-benzimidazol-2-yl]amino}pyridin-4-yl)methyl]piperazin-1-yl}propan-1-one]"
8,34.1,"O=C(C1CC1)N1CCN(Cc2ccnc(Nc3nc4ccc(-c5ncnc(NCC6CC6)c5F)cc4[nH]3)c2)CC1 [Example 195.03, cyclopropyl[4-({2-[(6-{6-[(cyclopropylmethyl)amino]-5-fluoropyrimidin-4-yl}-1H-benzimidazol-2-yl)amino]pyridin-4-yl}methyl)piperazin-1-yl]methanone]"
9,8.9,"COc1c(NC2CC2)ncnc1-c1ccc2nc(Nc3cc(CN4CCN(C(=O)C5CC5)CC4)ccn3)[nH]c2c1 [Example 108.03, cyclopropyl(4-{[2-({6-[6-(cyclopropylamino)-5-methoxypyrimidin-4-yl]-1H-benzimidazol-2-yl}amino)pyridin-4-yl]methyl}piperazin-1-yl)methanone]"
10,3010,"CN(C)c1ncnc(-c2ccc3nc(Nc4cc(CN5CCN(C(=O)OC(C)(C)C)CC5)ccn4)[nH]c3c2)c1Cl [Example 179.01, tert-butyl 4-{[2-({6-[5-chloro-6-(dimethylamino)pyrimidin-4-yl]-1H-benzimidazol-2-yl}amino)pyridin-4-yl]methyl}piperazine-1-carboxylate]"
11,41.9,"O=C(CC(F)(F)F)N1CCN(Cc2ccnc(Nc3nc4ccc(-c5cc(C6CCOCC6)ncn5)cc4[nH]3)c2)CC1 [Example 199.02, 3,3,3-trifluoro-1-(4-{[2-({6-[6-(tetrahydro-2H-pyran-4-yl)pyrimidin-4-yl]-1H-benzimidazol-2-yl}amino)pyridin-4-yl]methyl}piperazin-1-yl)propan-1-one]"
12,19.3,"COc1cnccc1-c1ccc2nc(Nc3cc(CN4CCN(C(=O)C5CC5)CC4)ccn3)[nH]c2c1 [Example 04.03, cyclopropyl{4-[(2-{[6-(3-methoxypyridin-4-yl)-1H-benzimidazol-2-yl]amino}pyridin-4-yl)methyl]piperazin-1-yl}methanone]"
13,444,"COc1cnc(C)cc1-c1ccc2nc(Nc3cc(CN4CCN(C(=O)CC5CC5)CC4)ccn3)[nH]c2c1 [Example 07.04, 2-cyclopropyl-1-{4-[(2-{[6-(5-methoxy-2-methylpyridin-4-yl)-1H-benzimidazol-2-yl]amino}pyridin-4-yl)methyl]piperazin-1-yl}ethanone]"
14,> 57000,"Cc1noc(-c2ccc3nc(Nc4cc(CN5CCN(c6ccc(F)c(F)c6)CC5)ccn4)[nH]c3c2)n1 [Example 101.21, N-(4-{[4-(3,4-difluorophenyl)piperazin-1-yl]methyl}pyridin-2-yl)-6-(3-methyl-1,2,4-oxadiazol-5-yl)-1H-benzimidazol-2-amine]"
15,9.8,"CN(CC(F)(F)F)c1cc(-c2ccc3nc(Nc4cc(CN5CCN(C(=O)CC(F)(F)F)CC5)ccn4)[nH]c3c2)ncn1 [Example 146.02, 3,3,3-trifluoro-1-[4-({2-[(6-{6-[methyl(2,2,2-trifluoroethyl)amino]pyrimidin-4-yl}-1H-benzimidazol-2-yl)amino]pyridin-4-yl}methyl)piperazin-1-yl]propan-1-one]"
16,77,"Cc1cc(-c2ccc3nc(Nc4cc(CN5CCN(C(=O)C6CC6)CC5)ccn4)[nH]c3c2)nc(C)n1 [Example 31.02, cyclopropyl{4-[(2-{[6-(2,6-dimethylpyrimidin-4-yl)-1H-benzimidazol-2-yl]amino}pyridin-4-yl)methyl]piperazin-1-yl}methanone]"
17,680,"Cc1noc(-c2ccc3nc(Nc4cc(CN5CCN(c6ccccc6F)CC5)ccn4)[nH]c3c2)n1 [Example 101.02, N-(4-{[4-(2-fluorophenyl)piperazin-1-yl]methyl}pyridin-2-yl)-6-(3-methyl-1,2,4-oxadiazol-5-yl)-1H-benzimidazol-2-amine]"
18,510,"CN(C)c1cnc(-c2ccc3nc(Nc4cc(CN5CCN(C(=O)OC(C)(C)C)CC5)ccn4)[nH]c3c2)cn1 [Example 144.01, tert-butyl 4-{[2-({6-[5-(dimethylamino)pyrazin-2-yl]-1H-benzimidazol-2-yl}amino)pyridin-4-yl]methyl}piperazine-1-carboxylate]"
19,15,"O=C(CC(F)(F)F)N1CCN(Cc2ccnc(Nc3nc4ccc(-c5cc(OCC6CCC6)ncn5)cc4[nH]3)c2)CC1 [Example 159.02, 1-(4-{[2-({6-[6-(cyclobutylmethoxy)pyrimidin-4-yl]-1H-benzimidazol-2-yl}amino)pyridin-4-yl]methyl}piperazin-1-yl)-3,3,3-trifluoropropan-1-one]"
20,11000,"CC(c1ccnc(Nc2nc3cc(-c4cc(C(F)(F)F)nn4C)ccc3[nH]2)c1)N1CCN(C(=O)OC(C)(C)C)CC1 (single isomer, unassigned) [Example 88.01, tert-butyl 4-{(1R or 1S)-1-[2-({6-[1-methyl-3-(trifluoromethyl)-1H-pyrazol-5-yl]-1H-benzimidazol-2-yl}amino)pyridin-4-yl]ethyl}piperazine-1-carboxylate]"
21,76,"Cc1cc(-c2ccc3nc(Nc4cc(C(C)N5CCN(C(=O)C6CC6)CC5)ccn4)[nH]c3c2Cl)ncn1 (stereo not drawn) [Example 98.03, {4-[(1R or IS)-1-(2-{[7-chloro-6-(6-methylpyrimidin-4-yl)-1H-benzimidazol-2-yl]amino}pyridin-4-yl)ethyl]piperazin-1-yl}(cyclopropyl)methanone]"
22,52.7,"Cn1cc(-c2ccc3nc(Nc4cc(CN5CCN(C(=O)C6CC6)CC5)ccn4)[nH]c3c2)cn1 [Example 37.03, cyclopropyl{4-[(2-{[6-(1-methyl-1H-pyrazol-4-yl)-1H-benzimidazol-2-yl]amino}pyridin-4-yl)methyl]piperazin-1-yl}methanone]"
23,6.46,"CC(c1ccnc(Nc2nc3ccc(-c4cc(N(C)CC5CC5)ncn4)cc3[nH]2)c1)N1CCN(C(=O)C2(C(F)(F)F)CC2)CC1 (single isomer, unassigned) [Example 197.04, {4-[(1R or 1S)-1-{2-[(6-{6-[(cyclopropylmethyl)(methyl)amino]pyrimidin-4-yl}-1H-benzimidazol-2-yl)amino]pyridin-4-yl}ethyl]piperazin-1-yl}[1-(trifluoromethyl)cyclopropyl]methanone]"
24,320,"Cc1cc(-c2ccc3nc(Nc4cc(C(C)N5CCN(C(=O)C6CC6)CC5)ccn4)[nH]c3c2)n(C)n1 (single isomer, unassigned) [Example 89.03, cyclopropyl{4-[(1R or 1S)-1-(2-{[6-(1,3-dimethyl-1H-pyrazol-5-yl)-1H-benzimidazol-2-yl]amino}pyridin-4-yl)ethyl]piperazin-1-yl}methanone]"
25,193,"COc1cncc(-c2ccc3nc(Nc4cc(CN5CCN(C(=O)C6CC6)CC5)ccn4)[nH]c3c2)n1 [Example 48.01, cyclopropyl{4-[(2-{[6-(6-methoxypyrazin-2-yl)-1H-benzimidazol-2-yl]amino}pyridin-4-yl)methyl]piperazin-1-yl}methanone]"
26,685,"CCC(C)c1noc(-c2ccc3nc(Nc4cc(CN5CCN(C(=O)C6CC6)CC5)ccn4)[nH]c3c2)n1 (stereo not drawn) [Example 20.01, (4-{[2-({6-[3-(butan-2-yl)-1,2,4-oxadiazol-5-yl]-1H-benzimidazol-2-yl}amino)pyridin-4-yl]methyl}piperazin-1-yl)(cyclopropyl)methanone]"

row,SMILES,IC50 [nM]
1,"Cc1noc(-c2ccc3nc(Nc4cc(CN5CCN(C(=O)CC(F)(F)F)CC5)ccn4)[nH]c3c2)n1 [Example 16.01.02, 3,3,3-trifluoro-1-{4-[(2-{[6-(3-methyl-1,2,4-oxadiazol-5-yl)-1H-benzimidazol-2-yl]amino}pyridin-4-yl)methyl]piperazin-1-yl}propan-1-one]",109

# Reference: patent US10894784B2, “Heteroarylbenzimidazole compounds” (BAYER PHARMA AKTIENGESELLSCHAFT, priority 2015, dated 2021)
